Legend:
Patient A skin = test: Daily topical application of a 5% imiquimod composition to Patient A skin, visual inspection; format: in vivo, human; settings: after 8 weeks of daily application
Excerpt: In a first example of a method of the invention, a 5% imiquimod composition is applied to Patient A skin.
(§1) One skilled in the art is familiar with many methods and techniques for evaluating or monitoring changes in the skin. […] For example, changes in pigmentation, texture, and the presence of wrinkles or fine lines can all be monitored through visual assessment. In addition, a mexameter can be used to measure skin pigment, a tewameter and/or evaporometer can be used to measure water content, a laser doppler device can measure blood flow, and a visioscan or optical profilometer can measure surface texture, wrinkles, and/or roughness. Any one or any combination of these methods can be used, in particular, to measure, monitor, or detect changes in fine wrinkles, mottled hyperpigmentation, tactile roughness, lentigines, course or deep wrinkles, telangiectasia, skin laxity, keratinocytic atypia, melanocytic atypia, and/or dermal elastosis. Thus, the methods and composition of the invention can be used to treat and/or to evaluate possible treatment compositions where any one of these diseases or conditions are present or may be present.

[1] = test system: entire face (precancerous lesions and normal, photodamaged skin); test: Daily application of a pea size aliquot of 5% imiquimod to the entire face of Patient B; format: in vivo, human; settings: pea size aliquot of 5% imiquimod every day to the entire face
Experimental: as §1, with “In a further example of a method of the invention, Patient B is treated with a pea size aliquot of 5% imiquimod every day to the entire face. […] One” for “One”, “elastosis.” for “elastosis. Thus, the methods and composition of the invention can be used to treat and/or to evaluate possible treatment compositions where any one of these diseases or conditions are present or may be present.”

CC(C)Cn1cnc2c(N)nc3ccccc3c21 [imiquimod, 1-isobutyl-1H-imidazo [4,5,-C] quinolin-4-amine]
appearance of clinical wrinkles by visual inspection (Patient A skin): decreases
general skin appearance (Patient A skin): generally improved and healthier appearance
most noticeable improvement (Patient A skin): pigmentation and texture
appearance of non-precancerous skin (normal, photodamaged skin) [1]: looks smoother, with more regular pigmentation, and improvement of the fine wrinkles
irritation of non-precancerous skin (normal, photodamaged skin) [1]: does not become irritated
reaction of areas of the skin with precancerous lesions on the nose ([1]; biopsy shows BCC in precancerous regions): became very red, eroded and irritated

Source: patent US7521459B2, “Method for treating damaged skin” (Metabeauty Inc., priority 2003, dated 2009)
